What was measured:
[1] = molecular target: aldosterone synthase (Rattus norvegicus, UniProt P30099); test: aldosterone synthase inhibitory activity in vitro; format: biochemical; settings: rat adrenal glomerulosa homogenate, corticosterone substrate; read-out: inhibits the aldosterone synthase activity, IC50 value
aldosterone synthase, sequence (P30099 35-510): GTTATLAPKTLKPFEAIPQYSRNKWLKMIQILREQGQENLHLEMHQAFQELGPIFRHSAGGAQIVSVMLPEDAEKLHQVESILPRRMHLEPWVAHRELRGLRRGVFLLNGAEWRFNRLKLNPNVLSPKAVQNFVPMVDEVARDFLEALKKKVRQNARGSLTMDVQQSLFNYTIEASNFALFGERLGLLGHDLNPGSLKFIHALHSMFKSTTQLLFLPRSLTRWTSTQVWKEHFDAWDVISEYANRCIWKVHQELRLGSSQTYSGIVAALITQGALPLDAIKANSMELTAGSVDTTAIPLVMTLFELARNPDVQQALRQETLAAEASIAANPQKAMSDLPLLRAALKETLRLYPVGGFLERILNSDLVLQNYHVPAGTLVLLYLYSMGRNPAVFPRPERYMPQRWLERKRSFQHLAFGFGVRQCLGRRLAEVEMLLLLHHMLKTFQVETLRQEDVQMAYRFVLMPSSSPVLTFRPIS
Text: The aldosterone synthase inhibitory activity in vitro may be determined as follows:
Adult male Sprague-Dawley rats weighing 125-150 g are obtained from Harlan Farms. All animals are caged in pairs and maintained under standard conditions of light and temperature. The animals are placed on a sodium depleted diet (0.01-0.02%) from Harland Teklad, Madison Wis. (Cat. No. TD90228) and maintained on normal drinking water ad libitum. The animals are maintained on this diet for two to four weeks prior to harvesting the adrenal glomerulosa cells. The rats are killed by CO2 inhalation, and the adrenals are immediately removed and placed in the same ice-cold buffer used during homogenization and assay of the enzyme preparation. The adrenals are de-capsulated to obtain the glomerulosa tissue. The tissue is homogenized in a glass homogenizer containing Tris assay buffer (8.5 mM MgCl2, 2.7 mM CaCl2, 3.13 mM KCl, 7.59 mM NaCl, 0.1% TEA and 50 mM Tris HCl adjusted to pH 7.4). […] The plates are scanned for radioactivity with a Bioscan System 200 Imaging Scanner (Bioscan, Ish. D.C.). The two products of the aldosterone synthase, 18—OH-corticosterone and aldosterone are scraped and counted in a liquid scintillation counter (Beckman LS6000TA, Beckman Instr., Palo Alto, Calif.).
The slope (Hill Coefficient) and x intercept (IC50) are determined by linear regression of the experimental data.

Compound | melting point [°C] | IC50 [1] [nM]
Cl.c1ccc(-c2ccc(-c3cccc4cncn34)cc2)cc1 | 240 to 242 | 
Cl.c1ccc(-c2ccccc2-c2cccc3cncn23)cc1 | 200 to 201 | 
Cl.c1ccc2c(-c3cccc4cncn34)coc2c1 | 96 to 98 | 
Cl.O=C(OCc1ccccc1)N1CC=C(c2cccc3cncn23)CC1 | 149 to 152 | 
Cl.c1ccc2c(-c3cccc4cncn34)cccc2c1 [Example 1, 5-Naphthalen-1-yl-imidazo[1,5-a]pyridine hydrochloride] | 222 to 223 | ~50

— patent publication US7713991B2, “Imidazo[[1, 5-A] pyridine derivatives and methods for treating aldosterone mediated diseases” (Novartis AG, priority 2003, dated 2010)
